Key:
[1] = molecular target: T1, human Cereblon WT GST-tagged protein (Homo sapiens, UniProt Q96SW2); test: CRBN-binding affinity, HTRF (CEREBLON BINDING kit); conditions: for inhibition at 0.5 µM: read-out: Inhibition Rate at 0.5 µM (%); for inhibition at 2 µM: read-out: Inhibition Rate at 2 µM (%)
T1 construct: purchased CISBIO 64BDCRBNPEH

[2] = test system: GSPT1; test: Western blot, degradation of substrate protein in hPBMCs; type: cell-based, Human
[3] = molecular target: T2, CK1α (Homo sapiens, UniProt P48729+Q96SW2); test: as above; type: cell-based
T2 construct: effects of the compounds of the present disclosure on the expression of target proteins in cells; endogenous in cells; host or cells: human PBMCs (Milecell Biotechnologies)

[4] = molecular target: T3, IKZF3 (Homo sapiens, UniProt Q96SW2+Q9UKT9); test: as above; type: cell-based
T3 construct: effects of the compounds of the present disclosure on the expression of target proteins in cells; endogenous in cells; host or cells: human PBMCs (Milecell Biotechnologies)

[5] = molecular target: T4, IKZF2 (Homo sapiens, UniProt Q96SW2+Q9UKS7); test: as above; type: cell-based
T4 construct: effects of the compounds of the present disclosure on the expression of target proteins in cells; endogenous in cells; host or cells: human PBMCs (Milecell Biotechnologies)

[6] = molecular target: T5, WEE1 (Homo sapiens, UniProt P30291+Q96SW2); test: as above; type: cell-based
T5 construct: effects of the compounds of the present disclosure on the expression of target proteins in cells; endogenous in cells; host or cells: human PBMCs (Milecell Biotechnologies)

[7] = molecular target: T6, IKZF1 (Homo sapiens, UniProt Q13422+Q96SW2); test: as above; type: cell-based
T6 construct: effects of the compounds of the present disclosure on the expression of target proteins in cells; endogenous in cells; host or cells: human PBMCs (Milecell Biotechnologies)

[8] = Western blot, 24 hours of compound treatment, compounds tested at 50 nM and 500 nM (concentration for the table not stated)
[9] = 24 hours treatment, compounds at 50 nM and 500 nM (concentration behind the class not stated)

T3 sequence (Q9UKT9 whole entry): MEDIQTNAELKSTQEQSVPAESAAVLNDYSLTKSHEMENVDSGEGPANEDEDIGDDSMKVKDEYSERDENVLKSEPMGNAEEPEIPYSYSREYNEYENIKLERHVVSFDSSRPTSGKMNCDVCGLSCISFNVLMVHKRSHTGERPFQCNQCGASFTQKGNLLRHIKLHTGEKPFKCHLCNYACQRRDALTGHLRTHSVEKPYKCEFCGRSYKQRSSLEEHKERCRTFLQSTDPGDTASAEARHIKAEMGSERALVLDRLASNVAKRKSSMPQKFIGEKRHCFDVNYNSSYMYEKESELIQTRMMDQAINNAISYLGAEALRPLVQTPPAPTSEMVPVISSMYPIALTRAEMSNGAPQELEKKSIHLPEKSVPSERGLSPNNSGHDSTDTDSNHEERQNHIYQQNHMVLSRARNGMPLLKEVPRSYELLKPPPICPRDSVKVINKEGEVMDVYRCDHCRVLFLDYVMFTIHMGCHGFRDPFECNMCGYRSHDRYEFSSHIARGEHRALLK
T3 sequence (Q96SW2 whole entry): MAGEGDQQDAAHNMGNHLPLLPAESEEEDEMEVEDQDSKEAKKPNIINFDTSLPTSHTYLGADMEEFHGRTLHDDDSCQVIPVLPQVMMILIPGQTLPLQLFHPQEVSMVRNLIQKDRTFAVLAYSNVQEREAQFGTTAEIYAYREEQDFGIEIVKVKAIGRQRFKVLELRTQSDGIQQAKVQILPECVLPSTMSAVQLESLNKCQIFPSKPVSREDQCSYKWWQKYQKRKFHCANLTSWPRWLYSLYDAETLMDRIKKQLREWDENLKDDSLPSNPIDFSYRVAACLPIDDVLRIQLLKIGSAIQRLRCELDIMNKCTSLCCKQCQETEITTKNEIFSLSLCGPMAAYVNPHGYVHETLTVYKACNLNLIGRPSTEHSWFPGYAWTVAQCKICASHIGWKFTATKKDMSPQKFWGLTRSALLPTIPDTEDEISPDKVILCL
T3 sequence (Q16531 whole entry partner): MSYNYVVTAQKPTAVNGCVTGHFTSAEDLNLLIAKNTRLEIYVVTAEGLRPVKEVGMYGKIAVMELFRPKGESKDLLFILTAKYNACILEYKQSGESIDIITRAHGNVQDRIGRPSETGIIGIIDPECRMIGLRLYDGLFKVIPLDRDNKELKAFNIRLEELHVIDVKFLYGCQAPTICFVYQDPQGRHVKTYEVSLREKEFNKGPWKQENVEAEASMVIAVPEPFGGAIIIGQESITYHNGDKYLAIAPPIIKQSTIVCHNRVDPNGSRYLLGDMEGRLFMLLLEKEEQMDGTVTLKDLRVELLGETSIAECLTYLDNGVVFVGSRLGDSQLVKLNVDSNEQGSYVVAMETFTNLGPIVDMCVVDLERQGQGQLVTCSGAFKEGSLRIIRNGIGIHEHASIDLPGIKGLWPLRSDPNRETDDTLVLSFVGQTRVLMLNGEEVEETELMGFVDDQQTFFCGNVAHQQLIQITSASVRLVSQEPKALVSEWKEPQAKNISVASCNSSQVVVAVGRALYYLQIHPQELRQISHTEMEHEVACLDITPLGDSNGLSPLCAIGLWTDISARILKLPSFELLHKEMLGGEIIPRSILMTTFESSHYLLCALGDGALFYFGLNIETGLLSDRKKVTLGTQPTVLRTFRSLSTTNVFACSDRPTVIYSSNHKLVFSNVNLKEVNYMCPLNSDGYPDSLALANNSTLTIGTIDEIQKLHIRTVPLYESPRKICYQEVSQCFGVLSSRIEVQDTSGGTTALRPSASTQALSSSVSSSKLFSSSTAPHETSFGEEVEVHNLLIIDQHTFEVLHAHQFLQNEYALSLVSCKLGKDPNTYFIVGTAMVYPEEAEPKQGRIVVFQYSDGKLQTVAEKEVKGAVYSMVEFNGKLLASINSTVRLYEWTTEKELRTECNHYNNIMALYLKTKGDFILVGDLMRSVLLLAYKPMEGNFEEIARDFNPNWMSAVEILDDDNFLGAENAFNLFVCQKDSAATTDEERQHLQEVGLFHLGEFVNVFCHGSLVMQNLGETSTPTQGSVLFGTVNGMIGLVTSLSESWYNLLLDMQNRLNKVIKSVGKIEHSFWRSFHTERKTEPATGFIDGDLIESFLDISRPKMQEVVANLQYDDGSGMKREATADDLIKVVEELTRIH
T1 sequence (Q96SW2 whole entry): as the sequence (Q96SW2 whole entry) above
T6 sequence (Q13422 whole entry): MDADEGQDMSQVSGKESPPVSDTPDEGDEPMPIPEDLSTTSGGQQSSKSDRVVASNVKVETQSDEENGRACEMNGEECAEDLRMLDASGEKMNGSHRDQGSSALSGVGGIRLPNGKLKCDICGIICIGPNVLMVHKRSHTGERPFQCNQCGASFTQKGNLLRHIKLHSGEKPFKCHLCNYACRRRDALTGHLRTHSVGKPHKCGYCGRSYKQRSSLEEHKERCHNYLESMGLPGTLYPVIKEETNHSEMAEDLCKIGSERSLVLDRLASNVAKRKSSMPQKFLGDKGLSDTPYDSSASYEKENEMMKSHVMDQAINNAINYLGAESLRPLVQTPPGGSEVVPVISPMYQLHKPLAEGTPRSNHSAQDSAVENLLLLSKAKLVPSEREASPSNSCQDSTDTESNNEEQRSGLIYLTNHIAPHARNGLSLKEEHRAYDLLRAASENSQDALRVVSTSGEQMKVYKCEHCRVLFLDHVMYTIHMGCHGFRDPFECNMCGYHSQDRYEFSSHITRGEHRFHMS
T6 sequence (Q96SW2 whole entry): as the sequence (Q96SW2 whole entry) above
T6 sequence (Q16531 whole entry partner): as the sequence (Q16531 whole entry partner) above
T2 sequence (P48729 whole entry): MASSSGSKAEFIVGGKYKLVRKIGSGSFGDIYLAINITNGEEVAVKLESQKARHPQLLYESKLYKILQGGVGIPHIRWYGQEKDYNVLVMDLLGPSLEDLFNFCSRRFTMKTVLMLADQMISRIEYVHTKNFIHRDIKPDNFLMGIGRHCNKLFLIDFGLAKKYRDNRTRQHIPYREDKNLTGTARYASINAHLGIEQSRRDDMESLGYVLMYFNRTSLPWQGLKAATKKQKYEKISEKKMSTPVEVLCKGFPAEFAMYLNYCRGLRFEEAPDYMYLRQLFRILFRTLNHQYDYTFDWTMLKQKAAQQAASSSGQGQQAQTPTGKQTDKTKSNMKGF
T2 sequence (Q96SW2 whole entry): as the sequence (Q96SW2 whole entry) above
T2 sequence (Q16531 whole entry partner): as the sequence (Q16531 whole entry partner) above
T4 sequence (Q9UKS7 whole entry): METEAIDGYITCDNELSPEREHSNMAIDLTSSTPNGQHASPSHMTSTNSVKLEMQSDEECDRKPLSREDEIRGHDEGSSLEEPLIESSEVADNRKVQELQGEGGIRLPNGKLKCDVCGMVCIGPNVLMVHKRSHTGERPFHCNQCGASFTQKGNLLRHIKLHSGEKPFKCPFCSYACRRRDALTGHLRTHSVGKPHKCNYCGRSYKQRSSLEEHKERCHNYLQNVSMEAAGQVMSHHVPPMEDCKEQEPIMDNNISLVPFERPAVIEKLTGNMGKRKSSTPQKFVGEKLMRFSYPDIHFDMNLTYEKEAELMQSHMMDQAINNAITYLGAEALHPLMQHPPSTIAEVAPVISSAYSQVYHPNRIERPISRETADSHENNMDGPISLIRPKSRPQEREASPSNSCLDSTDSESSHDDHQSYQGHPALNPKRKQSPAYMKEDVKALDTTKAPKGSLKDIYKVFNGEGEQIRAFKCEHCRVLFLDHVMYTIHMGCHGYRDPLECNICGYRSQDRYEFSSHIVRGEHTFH
T4 sequence (Q96SW2 whole entry): as the sequence (Q96SW2 whole entry) above
T4 sequence (Q16531 whole entry partner): as the sequence (Q16531 whole entry partner) above
T5 sequence (P30291 whole entry): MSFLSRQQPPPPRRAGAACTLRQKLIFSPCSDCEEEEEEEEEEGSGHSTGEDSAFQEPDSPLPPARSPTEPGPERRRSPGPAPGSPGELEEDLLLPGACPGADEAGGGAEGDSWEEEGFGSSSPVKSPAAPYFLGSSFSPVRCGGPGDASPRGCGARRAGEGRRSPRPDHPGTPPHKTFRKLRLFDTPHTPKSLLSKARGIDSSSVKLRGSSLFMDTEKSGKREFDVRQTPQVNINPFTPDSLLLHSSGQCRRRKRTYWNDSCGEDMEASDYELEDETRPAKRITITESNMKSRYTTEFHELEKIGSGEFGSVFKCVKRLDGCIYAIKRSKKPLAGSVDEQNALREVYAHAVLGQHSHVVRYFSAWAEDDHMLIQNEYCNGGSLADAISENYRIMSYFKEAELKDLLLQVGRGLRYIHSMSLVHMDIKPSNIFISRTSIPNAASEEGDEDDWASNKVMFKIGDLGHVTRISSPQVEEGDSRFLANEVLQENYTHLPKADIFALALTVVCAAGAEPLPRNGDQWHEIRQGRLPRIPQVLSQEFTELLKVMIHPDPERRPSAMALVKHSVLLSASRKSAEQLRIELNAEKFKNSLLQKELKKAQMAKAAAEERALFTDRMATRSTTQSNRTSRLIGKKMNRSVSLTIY
T5 sequence (Q96SW2 whole entry): as the sequence (Q96SW2 whole entry) above
T5 sequence (Q16531 whole entry partner): as the sequence (Q16531 whole entry partner) above

| Structure (SMILES) | inhibition at 0.5 µM [1] | inhibition at 2 µM [1] | GSPT1 substrate protein remaining % [2, 8] | CK1α substrate protein remaining % [3, 8] | IKZF3 substrate protein remaining % [4, 8] | IKZF2 substrate protein remaining % [5, 8] | Wee1 substrate protein remaining % [6, 8] | IKZF 1 substrate protein remaining % [7, 8] | GSPT1 substrate protein remaining % [2, 9] | CK1α substrate protein remaining % [3, 9] | IKZF3 substrate protein remaining % [4, 9] | IKZF2 substrate protein remaining % [5, 9] | Wee1 substrate protein remaining % [6, 9] | IKZF 1 substrate protein remaining % [7, 9] |
| --- | --- | --- | --- | --- | --- | --- | --- | --- | --- | --- | --- | --- | --- | --- |
| O=C1CCC(N2Cc3c(CN4CC=C(c5c[nH]c6ncccc56)CC4)cccc3C2=S)C(=O)N1 (stereo not drawn) [GT-08494, 3-(4-((4-(1H-pyrrolo[2,3-b]pyridin-3-yl)-3,6-dihydropyridin-1(2H)-yl)methyl)-1-thioxoisoindolin-2-yl)piperidine-2,6-dione] | 60 to 80% | 80 to 100% | B (80%< substrate protein remaining %≤ 100%) | B (80%< substrate protein remaining %≤ 100%) | B (80%< substrate protein remaining %≤ 100%) | A (0% ≤ substrate protein remaining % ≤ 80%) | A (0% ≤ substrate protein remaining % ≤ 80%) | A (0% ≤ substrate protein remaining % ≤ 80%) |  |  |  |  |  |  |
| O=C1CCC(N2Cc3c(CN4CCN(C(c5ccccc5)c5ccccc5)CC4)cccc3C2=S)C(=O)N1 (stereo not drawn) [GT-08191, 3-(4-((4-benzhydrylpiperazin-1-yl)methyl)-1-thioxoisoindolin-2-yl)piperidine-2,6-dione] | 30 to 40% | 60 to 80% | A (0% ≤ substrate protein remaining % ≤ 80%) | B (80%< substrate protein remaining %≤ 100%) | B (80%< substrate protein remaining %≤ 100%) | B (80%< substrate protein remaining %≤ 100%) | B (80%< substrate protein remaining %≤ 100%) | B (80%< substrate protein remaining %≤ 100%) |  |  |  |  |  |  |
| Cc1cc(C2=CCN(Cc3cccc4c3CN(C3CCC(=O)NC3=O)C4=S)CC2)cs1 (stereo not drawn) [GT-08318, 3-(4-((4-(5-methylthiophen-3-yl)-3,6-dihydropyridin-1(2H)-yl)methyl)-1-thioxoisoindolin-2-yl)piperidine-2,6-dione] | 40 to 53% | 60 to 80% |  |  |  |  |  |  | B (80%< substrate protein remaining %≤ 100%) | B (80%< substrate protein remaining %≤ 100%) | A (0% ≤ substrate protein remaining % ≤ 80%) | B (80%< substrate protein remaining %≤ 100%) | A (0% ≤ substrate protein remaining % ≤ 80%) | B (80%< substrate protein remaining %≤ 100%) |
| O=C1CCC(N2Cc3c(CN4CCN(c5cnccn5)CC4)cccc3C2=S)C(=O)N1 (stereo not drawn) [GT-08813, 3-(4-((4-(pyrazin-2-yl)piperazin-1-yl)methyl)-1-thioxoisoindolin-2-yl)piperidine-2,6-dione] | 60 to 80% | 80 to 100% | B (80%< substrate protein remaining %≤ 100%) | B (80%< substrate protein remaining %≤ 100%) | B (80%< substrate protein remaining %≤ 100%) | B (80%< substrate protein remaining %≤ 100%) | A (0% ≤ substrate protein remaining % ≤ 80%) | B (80%< substrate protein remaining %≤ 100%) |  |  |  |  |  |  |
| O=C1CCC(N2Cc3c(CN4CC=C(c5ncnc6sc7c(c56)CCC7)CC4)cccc3C2=S)C(=O)N1 (stereo not drawn) [GT-08963, 3-(4-((4-(6,7-dihydro-5H-cyclopenta[4,5]thieno[2,3-d]pyrimidin-4-yl)-3,6-dihydropyridin-1(2H)-yl)methyl)-1-thioxoisoindolin-2-yl)piperidine-2,6-dione] | 60 to 80% | 80 to 100% |  |  |  |  |  |  | B (80%< substrate protein remaining %≤ 100%) | B (80%< substrate protein remaining %≤ 100%) | B (80%< substrate protein remaining %≤ 100%) | B (80%< substrate protein remaining %≤ 100%) | A (0% ≤ substrate protein remaining % ≤ 80%) | B (80%< substrate protein remaining %≤ 100%) |
| O=C1CCC(N2Cc3c(CN4CC=C(c5cccc6cnccc56)CC4)cccc3C2=S)C(=O)N1 (stereo not drawn) [GT-08634, 3-(4-((4-(isoquinolin-5-yl)-3,6-dihydropyridin-1(2H)-yl)methyl)-1-thioxoisoindolin-2-yl)piperidine-2,6-dione] | 60 to 80% | 80 to 100% | B (80%< substrate protein remaining %≤ 100%) | B (80%< substrate protein remaining %≤ 100%) | B (80%< substrate protein remaining %≤ 100%) | B (80%< substrate protein remaining %≤ 100%) | A (0% ≤ substrate protein remaining % ≤ 80%) | B (80%< substrate protein remaining %≤ 100%) |  |  |  |  |  |  |
| O=C1CCC(N2Cc3c(CN4CCN(c5ccnc(Br)c5F)CC4)cccc3C2=S)C(=O)N1 (stereo not drawn) [GT-08733, 3-(4-((4-(2-bromo-3-fluoropyridin-4-yl)piperazin-1-yl)methyl)-1-thioxoisoindolin-2-yl)piperidine-2,6-dione] | 60 to 80% | 80 to 100% | A (0% ≤ substrate protein remaining % ≤ 80%) | B (80%< substrate protein remaining %≤ 100%) | B (80%< substrate protein remaining %≤ 100%) | B (80%< substrate protein remaining %≤ 100%) | A (0% ≤ substrate protein remaining % ≤ 80%) | B (80%< substrate protein remaining %≤ 100%) |  |  |  |  |  |  |
| O=C1CCC(N2Cc3c(CN4CC=C(c5ccoc5)CC4)cccc3C2=S)C(=O)N1 (stereo not drawn) [GT-08319, 3-(4-((4-(furan-3-yl)-3,6-dihydropyridin-1 (2H)-yl)methyl)-1-thioxoisoindolin-2-yl)piperidine-2,6-dione] | 40 to 53% | 80 to 100% |  |  |  |  |  |  | B (80%< substrate protein remaining %≤ 100%) | B (80%< substrate protein remaining %≤ 100%) | A (0% ≤ substrate protein remaining % ≤ 80%) | B (80%< substrate protein remaining %≤ 100%) | A (0% ≤ substrate protein remaining % ≤ 80%) | B (80%< substrate protein remaining %≤ 100%) |
| O=C1CCC(N2Cc3cc(CN4CCN(c5cc(F)cc(F)c5)CC4)ccc3C2=S)C(=O)N1 (stereo not drawn) [GT-08628, 3-(5-((4-(3,5-difluorophenyl)piperazin-1-yl)methyl)-1-thioxoisoindolin-2-yl)piperidine-2,6-dione] | 53 to 60% | 80 to 100% | A (0% ≤ substrate protein remaining % ≤ 80%) | B (80%< substrate protein remaining %≤ 100%) | B (80%< substrate protein remaining %≤ 100%) | B (80%< substrate protein remaining %≤ 100%) | B (80%< substrate protein remaining %≤ 100%) | B (80%< substrate protein remaining %≤ 100%) |  |  |  |  |  |  |
| O=C1CCC(N2Cc3c(CN4CCN(c5ccc(Cl)nc5)CC4)cccc3C2=S)C(=O)N1 (stereo not drawn) [GT-08723, 3-(4-((4-(6-chloropyridin-3-yl)piperazin-1-yl)methyl)-1-thioxoisoindolin-2-yl)piperidine-2,6-dione] | 60 to 80% | 80 to 100% | A (0% ≤ substrate protein remaining % ≤ 80%) | B (80%< substrate protein remaining %≤ 100%) | A (0% ≤ substrate protein remaining % ≤ 80%) | A (0% ≤ substrate protein remaining % ≤ 80%) | A (0% ≤ substrate protein remaining % ≤ 80%) | B (80%< substrate protein remaining %≤ 100%) |  |  |  |  |  |  |
| O=C1CCC(N2Cc3cc(CN4CCC(c5ccnc6cc(F)ccc56)CC4)ccc3C2=S)C(=O)N1 (stereo not drawn) [GT-09278, 3-(5-((4-(7-fluoroquinolin-4-yl)piperidin-1-yl)methyl)-1-thioxoisoindolin-2-yl)piperidine-2,6-dione] | 30 to 40% | 60 to 80% |  |  |  |  |  |  | B (80%< substrate protein remaining %≤ 100%) | B (80%< substrate protein remaining %≤ 100%) | A (0% ≤ substrate protein remaining % ≤ 80%) | B (80%< substrate protein remaining %≤ 100%) | A (0% ≤ substrate protein remaining % ≤ 80%) | A (0% ≤ substrate protein remaining % ≤ 80%) |
| O=C1CCC(N2Cc3cc(CN4CCN(c5ccsc5)CC4)ccc3C2=S)C(=O)N1 (stereo not drawn) [GT-08169, 3-(5-((4-(thiophen-3-yl)piperazin-1-yl)methyl)-1-thioxoisoindolin-2-yl)piperidine-2,6-dione] | 80 to 100% | 80 to 100% |  |  |  |  |  |  | A (0% ≤ substrate protein remaining % ≤ 80%) | B (80%< substrate protein remaining %≤ 100%) | B (80%< substrate protein remaining %≤ 100%) | B (80%< substrate protein remaining %≤ 100%) | A (0% ≤ substrate protein remaining % ≤ 80%) | B (80%< substrate protein remaining %≤ 100%) |

From EP4745135A1 (Gluetacs Therapeutics (Shanghai) Co., Ltd., priority 2023, dated 2025)
